Patent US20260035387A1 (BIOGEN MA INC., priority 2022, published 2026)

Tested on: mutant Huntington (HTT) protein
Assay: HTT Mutant HTRF iPSC assay (mHTT protein lowering)
Format: cell-based
Settings: human iPSC derived from a HTT patient with a poly-Q49 mutation

Compound	IC50
[2H]C([2H])([2H])N1CCN(c2ccc3cc(C(=O)Nc4cn5cc(C)nc5c(C)n4)sc3n2)CC1 [Compound 195, N-(2,8-dimethylimidazo[1,2-a]pyrazin-6-yl)-6-(4-(methyl-d3)piperazin-1-yl)thieno[2,3-b]pyridine-2-carboxamide]	< 100 nM
Cc1cn2cc(NC(=O)c3cc4ccc(N5C[C@@H]6CNC[C@@H]65)nc4s3)cc(F)c2n1 [Compound 196, 6-((1S,5R)-3,6-diazabicyclo[3.2.0]heptan-6-yl)-N-(8-fluoro-2-methylimidazo[1,2-a]pyridin-6-yl)thieno[2,3-b]pyridine-2-carboxamide]	< 100 nM
CNC1CN(c2ccc3cc(C(=O)Nc4cc(F)c5nc(C)cn5c4)sc3n2)C1 [Compound 197, N-(8-fluoro-2-methylimidazo[1,2-a]pyridin-6-yl)-6-(3-(methylamino)azetidin-1-yl)thieno[2,3-b]pyridine-2-carboxamide]	< 100 nM
Cc1cn2cc(NC(=O)c3cc4ccc(N5CCC6NCC65)nc4s3)cc(F)c2n1 (centres unmarked) [Compound 200, 6-(2,6-diazabicyclo[3.2.0]heptan-2-yl)-N-(8-fluoro-2-methylimidazo[1,2-a]pyridin-6-yl)thieno[2,3-b]pyridine-2-carboxamide]	< 100 nM
Cc1cn2cc(NC(=O)c3cc4ccc(N5CCC6CNCC65)nc4s3)cc(F)c2n1 (centres unmarked) [Compound 201, N-(8-fluoro-2-methylimidazo[1,2-a]pyridin-6-yl)-6-(hexahydropyrrolo[3,4-b]pyrrol-1(2H)-yl)thieno[2,3-b]pyridine-2-carboxamide]	< 100 nM
Cc1cn2cc(NC(=O)c3cc4ccc(N5C[C@H]6CN[C@H]6C5)nc4s3)cc(F)c2n1 [Compound 202, 6-((1R,5R)-3,6-diazabicyclo[3.2.0]heptan-3-yl)-N-(8-fluoro-2-methylimidazo[1,2-a]pyridin-6-yl)thieno[2,3-b]pyridine-2-carboxamide]	< 100 nM
Cc1cn2cc(NC(=O)c3cc4ccc(N5CC(N(C)C)C(C)(C)C5)nc4s3)cc(F)c2n1 (centres unmarked) [Compound 203, 6-(4-(dimethylamino)-3,3-dimethylpyrrolidin-1-yl)-N-(8-fluoro-2-methylimidazo[1,2-a]pyridin-6-yl)thieno[2,3-b]pyridine-2-carboxamide]	< 100 nM
Cc1cn2cc(NC(=O)c3cc4ccc(N5CC(N(C)C)C5)nc4s3)cc(F)c2n1 [Compound 204, 6-(3-(dimethylamino)azetidin-1-yl)-N-(8-fluoro-2-methylimidazo[1,2-a]pyridin-6-yl)thieno[2,3-b]pyridine-2-carboxamide]	< 100 nM
Cc1cn2cc(NC(=O)c3cc4ccc(N5CCC(N6CC7(CC7)C6)C5)nc4s3)cc(F)c2n1 (centres unmarked) [Compound 207, 6-(3-(5-azaspiro[2.3]hexan-5-yl)pyrrolidin-1-yl)-N-(8-fluoro-2-methylimidazo[1,2-a]pyridin-6-yl)thieno[2,3-b]pyridine-2-carboxamide]	< 100 nM
Cc1cn2cc(NC(=O)c3cc4ccc(N5CCC6(CCCN6C)C5)nc4s3)nc(C)c2n1 (centres unmarked) [Compound 208, N-(2,8-dimethylimidazo[1,2-a]pyrazin-6-yl)-6-(1-methyl-1,7-diazaspiro[4.4]nonan-7-yl)thieno[2,3-b]pyridine-2-carboxamide]	< 100 nM
Cc1cn2cc(NC(=O)c3cc4ccc(N5CCC56CCNC6)nc4s3)cc(F)c2n1 (centres unmarked) [Compound 209, N-(8-fluoro-2-methylimidazo[1,2-a]pyridin-6-yl)-6-(1,6-diazaspiro[3.4]octan-1-yl)thieno[2,3-b]pyridine-2-carboxamide]	< 100 nM
Cc1cn2cc(NC(=O)c3cc4ccc(N5CC(N(C)C)C6(CC6)C5)nc4s3)nc(C)c2n1 (centres unmarked) [Compound 211, 6-(7-(dimethylamino)-5-azaspiro[2.4]heptan-5-yl)-N-(2,8-dimethylimidazo[1,2-a]pyrazin-6-yl)thieno[2,3-b]pyridine-2-carboxamide]	< 100 nM
Cc1cn2cc(NC(=O)c3cc4ccc(NC5CN(C)CC5F)nc4s3)nc(C)c2n1 (centres unmarked) [Compound 214, N-(2,8-dimethylimidazo[1,2-a]pyrazin-6-yl)-6-((4-fluoro-1-methylpyrrolidin-3-yl)amino)thieno[2,3-b]pyridine-2-carboxamide]	< 100 nM
COc1cc2nn(C)cc2cc1NC(=O)c1cc2ccc(N3C[C@@H]4CN(C)C[C@@H]43)nc2s1 [Compound 216, N-(6-methoxy-2-methyl-2H-indazol-5-yl)-6-((1S,5R)-3-methyl-3,6-diazabicyclo[3.2.0]heptan-6-yl)thieno[2,3-b]pyridine-2-carboxamide]	< 100 nM
Cc1cn2cc(NC(=O)c3cc4ccc(N5C[C@H]6CN(C)C[C@H]65)nc4s3)cc(F)c2n1 [Compound 217, N-(8-fluoro-2-methylimidazo[1,2-a]pyridin-6-yl)-6-((1R,5S)-3-methyl-3,6-diazabicyclo[3.2.0]heptan-6-yl)thieno[2,3-b]pyridine-2-carboxamide]	< 100 nM
Cc1cn2cc(NC(=O)c3cc4ccc(N5C[C@H]6CN(C)C[C@H]65)nc4s3)nc(C)c2n1 [Compound 218, N-(2,8-dimethylimidazo[1,2-a]pyrazin-6-yl)-6-((1R,5S)-3-methyl-3,6-diazabicyclo[3.2.0]heptan-6-yl)thieno[2,3-b]pyridine-2-carboxamide]	< 100 nM

Compound	IC50
CNC1CCN(c2ccc3cc(C(=O)Nc4cn5cc(C)nc5c(C)n4)sc3n2)C1 (centres unmarked) [Compound 219, N-(2,8-dimethylimidazo[1,2-a]pyrazin-6-yl)-6-(3-(methylamino)pyrrolidin-1-yl)thieno[2,3-b]pyridine-2-carboxamide]	< 100 nM
CN[C@@H]1CCN(c2ccc3cc(C(=O)Nc4cc(OC)c5nc(C)cn5c4)sc3n2)C1 [Compound 220, (R)-N-(8-methoxy-2-methylimidazo[1,2-a]pyridin-6-yl)-6-(3-(methylamino)pyrrolidin-1-yl)thieno[2,3-b]pyridine-2-carboxamide]	< 100 nM
COc1cc2nn(C)cc2cc1NC(=O)c1cc2ccc(N3CCC4(CN(C)C4)C3)nc2s1 [Compound 221, N-(6-methoxy-2-methyl-2H-indazol-5-yl)-6-(2-methyl-2,6-diazaspiro[3.4]octan-6-yl)thieno[2,3-b]pyridine-2-carboxamide]	< 100 nM
Cc1cn2cc(NC(=O)c3cc4ccc(N5CCC6(CN(C)C6)C5)nc4s3)nc(C)c2n1 [Compound 226, N-(2,8-dimethylimidazo[1,2-a]pyrazin-6-yl)-6-(2-methyl-2,6-diazaspiro[3.4]octan-6-yl)thieno[2,3-b]pyridine-2-carboxamide]	< 100 nM
Cc1cn2cc(NC(=O)c3cc4ccc(N5CCC(C)(N(C)C)C5)nc4s3)nc(C)c2n1 (centres unmarked) [Compound 227, 6-(3-(dimethylamino)-3-methylpyrrolidin-1-yl)-N-(2,8-dimethylimidazo[1,2-a]pyrazin-6-yl)thieno[2,3-b]pyridine-2-carboxamide]	< 100 nM
Cc1cn2cc(NC(=O)c3cc4ccc(N5CCC(N6CCC6)C5)nc4s3)nc(C)c2n1 (centres unmarked) [Compound 228, 6-(3-(azetidin-1-yl)pyrrolidin-1-yl)-N-(2,8-dimethylimidazo[1,2-a]pyrazin-6-yl)thieno[2,3-b]pyridine-2-carboxamide]	< 100 nM
Cc1nc(NC(=O)c2cc3ccc(N4C[C@@H]5CN(C)C[C@@H]54)nc3s2)cc2cn(C)nc12 [Compound 229, N-(2,7-dimethyl-2H-pyrazolo[3,4-c]pyridin-5-yl)-6-((1S,5R)-3-methyl-3,6-diazabicyclo[3.2.0]heptan-6-yl)thieno[2,3-b]pyridine-2-carboxamide]	< 100 nM
Cc1nc(NC(=O)c2cc3ccc(N4CCC5(CCCN5C)C4)nc3s2)cc2cn(C)nc12 (centres unmarked) [Compound 230, N-(2,7-dimethyl-2H-pyrazolo[3,4-c]pyridin-5-yl)-6-(1-methyl-1,7-diazaspiro[4.4]nonan-7-yl)thieno[2,3-b]pyridine-2-carboxamide]	< 100 nM
COc1cc2nn(C)cc2cc1NC(=O)c1cc2ccc(N3CC(N4CCC4)C3)nc2s1 [Compound 232, 6-([1,3′-biazetidin]-1′-yl)-N-(6-methoxy-2-methyl-2H-indazol-5-yl)thieno[2,3-b]pyridine-2-carboxamide]	< 100 nM
Cc1cn2cc(NC(=O)c3cc4ccc(N5CCN(C(C)C)CC5)nc4s3)nc(C)c2n1 [Compound 233, N-(2,8-dimethylimidazo[1,2-a]pyrazin-6-yl)-6-(4-isopropylpiperazin-1-yl)thieno[2,3-b]pyridine-2-carboxamide]	< 100 nM
COc1cc2nn(C)cc2cc1NC(=O)c1cc2ccc(N3CCC(N4CCC4)C3)nc2s1 (centres unmarked) [Compound 234, 6-(3-(azetidin-1-yl)pyrrolidin-1-yl)-N-(6-methoxy-2-methyl-2H-indazol-5-yl)thieno[2,3-b]pyridine-2-carboxamide]	< 100 nM
COc1c(NC(=O)c2cc3ccc(N4C[C@@H]5CN(C)C[C@@H]54)nc3s2)cc2cn(C)nc2c1F [Compound 235, N-(7-fluoro-6-methoxy-2-methyl-2H-indazol-5-yl)-6-((1S,5R)-3-methyl-3,6-diazabicyclo[3.2.0]heptan-6-yl)thieno[2,3-b]pyridine-2-carboxamide]	< 100 nM
COc1cc2nn(C)cc2cc1NC(=O)c1cc2ccc(N3CC4(CCCN4C)C3)nc2s1 [Compound 236, N-(6-methoxy-2-methyl-2H-indazol-5-yl)-6-(5-methyl-2,5-diazaspiro[3.4]octan-2-yl)thieno[2,3-b]pyridine-2-carboxamide]	< 100 nM
Cc1cn2cc(NC(=O)c3cc4ccc(N5CC6CCNC6C5)nc4s3)cc(F)c2n1 (centres unmarked) [Compound 237, N-(8-fluoro-2-methylimidazo[1,2-a]pyridin-6-yl)-6-(hexahydropyrrolo[3,4-b]pyrrol-5(1H)-yl)thieno[2,3-b]pyridine-2-carboxamide]	< 100 nM
CNC1CCN(c2ccc3cc(C(=O)Nc4cc(F)c5nc(C)cn5c4)sc3n2)C1 (centres unmarked) [Compound 238, N-(8-fluoro-2-methylimidazo[1,2-a]pyridin-6-yl)-6-(3-(methylamino)pyrrolidin-1-yl)thieno[2,3-b]pyridine-2-carboxamide]	< 100 nM
CCN1CCN(c2ccc3cc(C(=O)Nc4cn5cc(C)nc5c(C)n4)sc3n2)CC1 [Compound 240, N-(2,8-dimethylimidazo[1,2-a]pyrazin-6-yl)-6-(4-ethylpiperazin-1-yl)thieno[2,3-b]pyridine-2-carboxamide]	< 100 nM
